Assays:
[1] = Inhibition of Wnt/beta-catenin transactivation signalling in human SW480 cells by TOPFlash reporter gene assay; format: cell-based
[2] = Effect of Wnt/beta-Catenin signaling pathway in human SW480 cells assessed as reduction in Cyclin D1 level at 5 uM incubated for 24 hrs by qRT-PCR analysis relative to control; format: functional; conditions: SW480, 24 h
[3] = Effect of Wnt/beta-Catenin signaling pathway in human SW480 cells assessed as reduction in Cyclin D1 level at 10 uM incubated for 24 hrs by qRT-PCR analysis relative to control; format: functional; conditions: SW480, 24 h
[4] = system: HCT-116; assay: Antiproliferative activity against human HCT-116 cells assessed as inhibition of cell growth measured by MTS method; format: functional, cell-based
[5] = system: MDA-MB-231; assay: Antiproliferative activity against human MDA-MB-231 cells assessed as inhibition of cell growth measured by MTS method; format: functional, cell-based
[6] = Effect of Wnt/beta-Catenin signaling pathway in human SW480 cells assessed as reduction in BCL9L level at 10 uM incubated for 24 hrs by qRT-PCR analysis relative to control; format: functional; conditions: SW480, 24 h
[7] = Metabolic stability in mouse Hepatocyte assessed as half life; format: ADME, cell-based; conditions: hepatocytes
[8] = Metabolic stability in human Hepatocyte assessed as half life; format: ADME, cell-based; conditions: hepatocytes
[9] = molecular target: T1, beta-catenin-B-cell lymphoma 9 protein complex (Homo sapiens, UniProt P35222); assay: Inhibition of full length beta-catenin (1 to 781 residues) (unknown origin) expressed in Escherichia coli BL21 (DE3)-N-terminal biotinylated human BCL9 (350 to 375 residues) protein-protein interaction incubated for 1 hr by Alphascreen assay
T1 sequence (P35222 whole entry): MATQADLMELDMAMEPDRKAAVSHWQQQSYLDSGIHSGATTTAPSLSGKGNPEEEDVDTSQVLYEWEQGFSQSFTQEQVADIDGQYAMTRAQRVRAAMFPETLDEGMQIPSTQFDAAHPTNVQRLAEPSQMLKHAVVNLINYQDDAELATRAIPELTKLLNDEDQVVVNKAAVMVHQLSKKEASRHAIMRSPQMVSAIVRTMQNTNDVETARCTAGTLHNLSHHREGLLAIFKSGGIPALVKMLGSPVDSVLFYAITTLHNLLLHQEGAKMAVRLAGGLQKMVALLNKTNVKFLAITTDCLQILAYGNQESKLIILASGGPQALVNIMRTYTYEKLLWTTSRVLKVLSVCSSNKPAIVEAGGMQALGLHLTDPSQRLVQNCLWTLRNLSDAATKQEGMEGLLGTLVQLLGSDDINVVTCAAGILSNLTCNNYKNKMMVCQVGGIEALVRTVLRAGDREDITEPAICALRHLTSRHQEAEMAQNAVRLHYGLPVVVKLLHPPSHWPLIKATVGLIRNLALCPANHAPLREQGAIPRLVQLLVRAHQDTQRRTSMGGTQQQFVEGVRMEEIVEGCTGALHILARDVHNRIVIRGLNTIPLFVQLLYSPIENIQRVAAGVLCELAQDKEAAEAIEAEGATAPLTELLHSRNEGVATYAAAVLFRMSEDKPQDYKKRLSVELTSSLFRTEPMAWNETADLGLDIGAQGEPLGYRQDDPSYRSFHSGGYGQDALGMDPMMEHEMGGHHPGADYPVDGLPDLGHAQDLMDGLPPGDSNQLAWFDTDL
T1 sequence (O00512 whole entry): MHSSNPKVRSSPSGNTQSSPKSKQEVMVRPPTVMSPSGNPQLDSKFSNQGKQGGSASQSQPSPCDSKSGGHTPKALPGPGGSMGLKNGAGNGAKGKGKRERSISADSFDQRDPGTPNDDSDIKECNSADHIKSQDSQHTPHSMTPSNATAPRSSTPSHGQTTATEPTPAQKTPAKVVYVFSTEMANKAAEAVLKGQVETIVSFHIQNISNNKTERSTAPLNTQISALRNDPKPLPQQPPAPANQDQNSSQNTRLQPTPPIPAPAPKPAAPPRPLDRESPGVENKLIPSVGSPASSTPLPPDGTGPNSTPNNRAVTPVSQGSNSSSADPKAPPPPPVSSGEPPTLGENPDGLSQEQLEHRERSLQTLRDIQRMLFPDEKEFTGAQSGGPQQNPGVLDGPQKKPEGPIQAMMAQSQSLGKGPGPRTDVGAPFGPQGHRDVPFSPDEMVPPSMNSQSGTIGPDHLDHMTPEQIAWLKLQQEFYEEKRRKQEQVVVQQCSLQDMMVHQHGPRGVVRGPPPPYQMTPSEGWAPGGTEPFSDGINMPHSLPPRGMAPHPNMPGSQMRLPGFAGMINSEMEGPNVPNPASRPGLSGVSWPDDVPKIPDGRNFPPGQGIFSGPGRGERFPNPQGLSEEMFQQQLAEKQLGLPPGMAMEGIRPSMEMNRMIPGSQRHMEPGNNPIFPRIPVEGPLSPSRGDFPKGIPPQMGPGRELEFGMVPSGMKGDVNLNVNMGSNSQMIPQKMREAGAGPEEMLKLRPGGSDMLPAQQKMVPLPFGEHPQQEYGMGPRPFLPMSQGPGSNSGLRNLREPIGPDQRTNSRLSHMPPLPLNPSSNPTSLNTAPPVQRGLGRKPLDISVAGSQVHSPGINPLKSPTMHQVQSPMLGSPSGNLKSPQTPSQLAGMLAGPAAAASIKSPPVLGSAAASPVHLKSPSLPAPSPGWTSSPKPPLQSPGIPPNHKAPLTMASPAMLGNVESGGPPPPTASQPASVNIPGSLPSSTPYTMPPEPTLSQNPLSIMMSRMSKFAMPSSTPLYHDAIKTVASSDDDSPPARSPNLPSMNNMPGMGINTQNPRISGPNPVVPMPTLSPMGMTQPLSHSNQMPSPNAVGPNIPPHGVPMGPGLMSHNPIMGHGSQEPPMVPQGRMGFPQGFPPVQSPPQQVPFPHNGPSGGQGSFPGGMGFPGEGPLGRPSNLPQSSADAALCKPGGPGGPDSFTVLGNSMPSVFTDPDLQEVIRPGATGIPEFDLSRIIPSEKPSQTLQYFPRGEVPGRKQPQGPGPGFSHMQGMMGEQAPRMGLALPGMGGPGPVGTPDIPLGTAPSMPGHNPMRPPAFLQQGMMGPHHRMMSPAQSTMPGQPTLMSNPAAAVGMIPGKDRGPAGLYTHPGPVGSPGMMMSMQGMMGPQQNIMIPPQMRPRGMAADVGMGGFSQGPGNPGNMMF

[10] = molecular target: CYP2D6 (Homo sapiens, UniProt P10635); assay: Inhibition of CYP2D6 in human liver microsomes using bufuralol as substrate at 10 uM in presence of NADPH incubated for 10 mins; format: ADME, Microsome; conditions: probe bufuralol
[11] = Effect of Wnt/beta-Catenin signaling pathway in human SW480 cells assessed as HPRT level at 10 uM incubated for 24 hrs by qRT-PCR analysis relative to control; conditions: SW480, 24 h
[12] = system: MDA-MB-468; assay: Antiproliferative activity against human MDA-MB-468 cells assessed as inhibition of cell growth measured by MTS method; format: functional, cell-based
[13] = Effect of Wnt/beta-Catenin signaling pathway in human SW480 cells assessed as reduction in HPRT level at 20 uM incubated for 24 hrs by qRT-PCR analysis relative to control; format: functional; conditions: SW480, 24 h

CYP2D6, sequence (P10635 whole entry): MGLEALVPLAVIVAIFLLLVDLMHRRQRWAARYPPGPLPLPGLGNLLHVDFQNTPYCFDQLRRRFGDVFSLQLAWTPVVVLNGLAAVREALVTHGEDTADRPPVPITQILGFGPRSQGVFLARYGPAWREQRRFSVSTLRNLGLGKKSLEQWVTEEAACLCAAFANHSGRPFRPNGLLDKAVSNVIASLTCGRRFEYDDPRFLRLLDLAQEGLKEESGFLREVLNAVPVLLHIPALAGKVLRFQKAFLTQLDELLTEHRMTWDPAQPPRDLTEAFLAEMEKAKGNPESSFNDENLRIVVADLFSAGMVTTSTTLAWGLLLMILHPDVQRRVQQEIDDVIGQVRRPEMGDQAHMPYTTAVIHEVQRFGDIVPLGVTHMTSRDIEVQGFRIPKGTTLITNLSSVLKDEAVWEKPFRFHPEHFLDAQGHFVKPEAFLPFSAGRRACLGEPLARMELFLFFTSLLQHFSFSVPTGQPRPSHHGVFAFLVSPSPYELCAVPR

What does the source list for `CC(C)(Oc1cccc(N2CCC[C@@H](C(=O)N(Cc3ccc(-c4cnc5[nH]ccc5c4)cc3)C3CC3)C2)c1)C(=O)N1CCNCC1.Cl`?
IC50 [1]: 7 µM; level, % of control at 5 µM [2]: 89%; level, % of control at 10 µM [3]: 54%; IC50 [4]: 9.5 µM; IC50 [5]: 6.3 µM; level, % of control at 10 µM [6]: 52%; half-life [7]: 11.6 min; half-life [8]: 25.2 min; IC50 [9]: 3.4 µM; Ki [9]: 2.7 µM; inhibition at 10 min, 10 µM [10]: 54%; level, % of control at 10 µM [11]: 100%; IC50 [12]: 5 µM; level, % of control at 20 µM [13]: 99%
